Test results taken from patent US11225466B2, “Benzothiadiazepine compounds and their use as bile acid modulators” (Albireo AB, priority 2019, dated 2022).

Tests used:
[1] = Bidirectional permeability assay (Caco-2 cells); type: in vitro ADME; conditions: human, Caco-2, pH 7.4, 120 minutes at 37° C., FaSSIF buffer; for Papp A→B at 120 min, 10 µM: absorptive direction (A2B); for Papp B→A at 120 min, 10 µM: secretory direction (B2A)
From the text: Bidirectional Permeability Assay (Caco-2 Cells)

Human IBAT = molecular target: T1, Human IBAT (Homo sapiens, UniProt Q12908); assay: IBAT (h/m) assay: 3H-taurocholic acid uptake in human IBAT-overexpressing cells; type: cell-based; conditions: 0.25 μM 3H-taurocholic acid and 5 μM cold taurocholic acid, read-out: hIBAT IC50
T1 construct: expressed in transfected cells; kept under Puromycin selection
T1 sequence (Q12908 1-348): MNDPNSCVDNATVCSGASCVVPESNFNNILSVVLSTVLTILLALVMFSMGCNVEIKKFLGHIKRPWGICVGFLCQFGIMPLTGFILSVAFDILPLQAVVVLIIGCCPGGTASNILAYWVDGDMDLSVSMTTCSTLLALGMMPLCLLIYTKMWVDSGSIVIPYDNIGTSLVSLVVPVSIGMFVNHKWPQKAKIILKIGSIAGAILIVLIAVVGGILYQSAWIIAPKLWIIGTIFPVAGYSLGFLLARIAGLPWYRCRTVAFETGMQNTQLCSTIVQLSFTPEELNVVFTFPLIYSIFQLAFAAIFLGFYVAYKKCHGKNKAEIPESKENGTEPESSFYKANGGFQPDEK
Description: IBAT (h/m) Assay Protocol
(§1) 10,000 cells (Human or Mouse IBAT-overexpressing cells) were seeded in 96-wells plate (Corning CLS3809) in 200 μL MEM-alpha medium (Gibco 12571-063) supplemented with 10% FBS (Gibco 10438026) containing Puromycin (Gibco A1113803) (10 μg/mL) and incubated at 37° C. in 5% CO2 for 48 hours. After incubation, media was decanted from the wells and cells were washed two times with 300 μL of basal MEM-alpha medium (FBS-free). After decanting basal MEM-alpha medium each time, plates were tapped against paper towel to ensure maximum removal of residual media.
Test inhibitor dilutions (highest test concentration being 10 μM, 3-fold serial dilution, 10 points) prepared in DMSO (Sigma D2650) were added in incubation mix (maintaining 0.2% final DMSO concentration) containing 0.25 μM 3H-taurocholic acid (ARC ART-1368) and 5 μM of cold taurocholic acid (Sigma T4009). 50 μL of incubation mix containing test inhibitors was then added to the wells (in duplicate) and the plates were incubated for 20 minutes in a CO2 incubator at 37° C. After incubation, the reaction was stopped by keeping the plates on ice water mix for 2-3 minutes and then the incubation mix was aspirated completely from the wells. The wells were washed two times with 250 μL of chilled unlabeled 1 mM taurocholic acid dissolved in HEPES (Gibco 15630080)-buffered (10 mM) HBSS (Gibco 14175079) (pH 7.4). The plates were tapped against a paper towel after every wash to ensure maximum removal of blocking buffer.
(§2) 100 μL of MicroScint-20 (PerkinElmer 6013621) was added to the wells and kept overnight at room temperature before reading the plates in TopCount NXT™ Microplate Scintillation and Luminescence Counter from PerkinElmer under 3H Test protocol (set at 120 seconds reading time per well).
All test compounds were provided in powder form at room temperature. 10 mM DMSO stocks of the test compounds were prepared, aliquoted and stored at −20° C. From the 10 mM DMSO stock of the compounds, a 3-fold serial dilution in DMSO was prepared to get a total of 10 dilutions of the test compounds. […]

Human LBAT = molecular target: T2, Human LBAT (Homo sapiens, UniProt Q14973); assay: LBAT (h/m) assay: 3H-taurocholic acid uptake in human LBAT-overexpressing cells; type: cell-based; conditions: 0.3 μM 3H-taurocholic acid and 7.5 μM cold taurocholic acid, read-out: hLBAT IC50
T2 sequence (Q14973 1-349): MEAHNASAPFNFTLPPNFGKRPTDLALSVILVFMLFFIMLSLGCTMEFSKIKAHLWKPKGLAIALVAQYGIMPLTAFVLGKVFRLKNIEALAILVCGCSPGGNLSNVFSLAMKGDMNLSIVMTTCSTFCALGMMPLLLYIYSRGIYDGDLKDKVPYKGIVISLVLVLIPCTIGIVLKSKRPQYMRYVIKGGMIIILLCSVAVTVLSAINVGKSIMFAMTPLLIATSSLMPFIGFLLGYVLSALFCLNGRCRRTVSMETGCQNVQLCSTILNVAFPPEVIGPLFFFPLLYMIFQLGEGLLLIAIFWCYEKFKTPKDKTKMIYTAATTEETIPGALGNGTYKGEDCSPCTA
Description: LBAT (h/m) Assay Protocol
as §1, with “20,000” for “10,000”, “LBAT-overexpressing” for “IBAT-overexpressing”, “100” for “200”, “Geneticin” for “Puromycin”, “10131-027) (1 mg/mL)” for “A1113803) (10 μg/mL)”, “24” for “48”
For human LBAT, incubation mix was prepared by adding test inhibitor dilutions (3-fold serial dilution in DMSO (Sigma D2650), 10 points) in MEM-alpha (without FBS) containing 0.3 μM 3H-taurocholic acid (ARC ART-1368) and 7.5 μM cold taurocholic acid (Sigma T4009) (maintaining 0.2% final DMSO concentration). […]
as §2, with “well, with normal plate orientation). […]” for “well).”

Papp A→B at 120 min, 10 µM [1] | Papp B→A at 120 min, 10 µM [1] | IC50 (Human IBAT) | IC50 (Human LBAT) | Structure (SMILES)
1.1 ×10⁻⁶ cm/s | 2.9 ×10⁻⁶ cm/s | 8.8 nM |  | CCCCC1(CC)CN(c2ccccc2)c2cc(SC)c(OCC(=O)O)cc2S(=O)(=O)N1 (stereo not drawn) [Example 1, 2-((3-butyl-3-ethyl-7-(methylthio)-1,1-dioxido-5-phenyl-2,3,4,5-tetrahydrobenzo-1,2,5-thiadiazepin-8-yl)oxy)acetic Acid]
2.52 ×10⁻⁶ cm/s | 4 ×10⁻⁶ cm/s | 5.7 nM | 3980 nM | CCCC[C@@]1(CC)CN(c2ccccc2)c2cc(SC)c(OCC(=O)O)cc2S(=O)(=O)N1 (single isomer, unassigned) [Example 2]
 |  | 182 nM | 5000 nM | CCCC[C@]1(CC)CN(c2ccccc2)c2cc(SC)c(OCC(=O)O)cc2S(=O)(=O)N1 (single isomer, unassigned) [Example 3]
